A short description of data set [1]: Intrinsic clearance in mouse liver microsomes. It counts as ADME, microsome. As to conditions: read-out: CLH.
Data set [2] in a line: Half life in mouse liver microsomes. It counts as ADME, microsome.
Data set [3] in a line: Cytotoxicity against African green monkey Vero cells assessed as reduction in cell viability after 72 hrs by MTS/PMS assay. As to conditions: chlorocebus sabaeus. It counts as cell-based.
Data set [4] relates to Mycobacterium tuberculosis. In words: Antimycobacterial activity against Mycobacterium tuberculosis H37Rv measured after 1 week by resazurin assay. The class given is functional. As to conditions: 168 h.
Data set [5] is described as follows: Selectivity index, ratio of CC50 for African green monkey Vero cells to MIC for Mycobacterium tuberculosis H37Rv. It counts as toxicity. As to conditions: read-out: Selectivity Index.

Each structure is given as a SMILES string. Values after ≈ are worked out from the molar mass of the structure shown.

For the molecule `Cc1ccc(CSc2nc(N)c3c4c(sc3n2)CC(C(C)(C)C)CC4)s1` (configuration not stated), the microsomal CLint in data set [1] amounted to 21.8 µL/min/mg. The molecule further had a half-life in data set [2] of 31.8 min. For the same molecule, the cytotoxic concentration (CC50) at 72 h in data set [3] was found to be 12.5 µg/mL (≈ 31 µM). For the same molecule, the MIC in data set [4] is greater than 200 µg/mL.
For the molecule `CC(C)(C)C1CCc2c(sc3nc(SCc4cccc([N+](=O)[O-])c4)nc(N)c23)C1` (configuration not stated), the microsomal CLint in data set [1] came out at 14.6 µL/min/mg. Further, the half-life in data set [2] amounted to 47.5 min. Also, the cytotoxic concentration (CC50) at 72 h in data set [3] was greater than 200 µg/mL. Further, the MIC in data set [4] is 10 µg/mL (≈ 23.3 µM). In data set [5], the selectivity ratio is greater than 20.
As for `CC(C)(C)C1CCc2c(sc3nc(SCc4ccnn4C4CCCCO4)nc(N)c23)C1` (configuration not stated), the microsomal CLint in data set [1] was 11.5 µL/min/mg. For the same molecule, the half-life in data set [2] is 60.3 min. For the same molecule, in data set [3], the CC50 at 72 h was 6.2 µg/mL (≈ 13.5 µM). In data set [4], the MIC was determined as 25 µg/mL (≈ 54.6 µM).
The like results for `Cc1ccc(CSc2nc(N)c3c4c(sc3n2)CC(C(C)(C)C)CC4)o1` (configuration not stated) were, in that order, 35.1 µL/min/mg, 19.7 min, 3.1 µg/mL (≈ 8 µM) and 200 µg/mL (≈ 516 µM).
In the case of `CC(C)(C)C1CCc2c(sc3nc(SCc4ccc(C(=O)O)cc4[N+](=O)[O-])nc(N)c23)C1` (configuration not stated), in data set [1], the microsomal CLint worked out at 5.8 µL/min/mg. Besides, the half-life in data set [2] worked out at 120 min. Also, the half-maximal cytotoxic concentration (CC50) at 72 h in data set [3] was greater than 50 µg/mL. Besides, the minimum inhibitory concentration (MIC) in data set [4] lay within 12.5 to 25 µg/mL (≈ 26.4 to 52.9 µM).
The like results for `CC(C)(C)C1CCc2c(sc3nc(SCc4ccc5c(c4)OCO5)nc(N)c23)C1` (configuration not stated) were, in that order, 10.8 µL/min/mg, 64.2 min, greater than 50 µg/mL and greater than 200 µg/mL.
The like results for `COc1ccc([N+](=O)[O-])cc1CSc1nc(N)c2c3c(sc2n1)CC(C(C)(C)C)CC3` (configuration not stated) were, in that order, 7.9 µL/min/mg, 87.7 min, 12.5 µg/mL (≈ 27.3 µM) and greater than 200 µg/mL.
As to `Cc1nc(CSc2nc(N)c3c4c(sc3n2)CC(C(C)(C)C)CC4)sc1C` (configuration not stated), the microsomal CLint in data set [1] worked out at 31.9 µL/min/mg. In data set [2], the half-life is 21.7 min. Also, in data set [3], the half-maximal cytotoxic concentration (CC50) at 72 h was determined as 1.6 µg/mL (≈ 3.82 µM). Besides, the MIC in data set [4] was 100 to 200 µg/mL (≈ 239 to 478 µM).
For the molecule `CC(C)(C)C1CCc2c(sc3nc(SCc4cc([N+](=O)[O-])ccc4O)nc(N)c23)C1` (configuration not stated), in data set [1], the microsomal CLint came to 11.9 µL/min/mg. Also, in data set [2], the half-life worked out at 58.2 min. Also, the half-maximal cytotoxic concentration (CC50) at 72 h in data set [3] was determined as 50 µg/mL (≈ 112 µM). Inhibition of growth in data set [4] (MIC) required 200 µg/mL (≈ 450 µM).
With `CC(C)(C)C1CCc2c(sc3nc(SCc4nccs4)nc(N)c23)C1` (configuration not stated), the half-life in data set [2] turned out to be 66.6 min.
Same read-out and setting: with `Cc1cc(CSc2nc(N)c3c4c(sc3n2)CC(C(C)(C)C)CC4)no1` (configuration not stated) the figure was 19 min.
As for `CCOC(=O)CSc1nc(N)c2c3c(sc2n1)CC(C(C)(C)C)CC3` (configuration not stated), the microsomal CLint in data set [1] was greater than 1390 µL/min/mg. In data set [2], the half-life is less than 1 min. For the same molecule, the CC50 at 72 h in data set [3] was found to be 45 µg/mL (≈ 119 µM). This molecule returned an MIC in data set [4] of 0.19 to 0.38 µg/mL (≈ 0.501 to 1 µM). Moreover, the selectivity ratio in data set [5] lay in the range of 120 to 240.
Consider `Cc1cccc(CSc2nc(N)c3c4c(sc3n2)CC(C(C)(C)C)CC4)n1` (configuration not stated), for which the microsomal CLint in data set [1] came to 40.8 µL/min/mg. In data set [2], this molecule showed a half-life of 17 min. The CC50 at 72 h in data set [3] worked out at 25 µg/mL (≈ 62.7 µM). In data set [4], this molecule had an MIC greater than 200 µg/mL.
On the same counts, the results for `CC(C)(C)C1CCc2c(sc3nc(SCc4ccc(C(=O)O)cc4)nc(N)c23)C1` (configuration not stated) are 7.3 µL/min/mg, 95 min, 50 µg/mL (≈ 117 µM) and 25 to 50 µg/mL (≈ 58.5 to 117 µM).
Regarding `Cn1nccc1CSc1nc(N)c2c3c(sc2n1)CC(C(C)(C)C)CC3` (configuration not stated), the microsomal CLint in data set [1] was found to be 11.4 µL/min/mg. Further, the half-life in data set [2] stood at 60.8 min. Further, the half-maximal cytotoxic concentration (CC50) at 72 h in data set [3] came out at 100 µg/mL (≈ 258 µM). The same molecule registered a minimal inhibitory concentration (MIC) in data set [4] of 10 µg/mL (≈ 25.8 µM). In data set [5], the selectivity ratio was found to be 10.
As for `CC(C)(C)C1CCc2c(sc3nc(SCc4ccc([N+](=O)[O-])cc4)nc(N)c23)C1` (configuration not stated), the microsomal CLint in data set [1] was found to be 20.1 µL/min/mg. For the same molecule, the half-life in data set [2] stood at 34.3 min. The CC50 at 72 h in data set [3] is greater than 50 µg/mL. The same molecule returned an MIC in data set [4] greater than 200 µg/mL.
For the molecule `NNC(=O)c1ccncc1` [ISONIAZID], the lowest concentration to inhibit growth in data set [4] (MIC) was 0.039 µg/mL (≈ 0.284 µM).
